Legend:
[1] = biological target: T1, human recombinant adrenergic α2B receptor (Homo sapiens, UniProt P18089); test: Adrenergic α2B radioligand binding ([3H]Rauwolscine); settings: percent inhibition of specific binding; compound at 1 μM; read-out: Inhibition of ligand binding, Adrenergic α2B
T1 construct: expressed in transfected cells; host or cells: Chinese hamster ovary (CHO-K1) cells
T1 sequence (P18089 1-450): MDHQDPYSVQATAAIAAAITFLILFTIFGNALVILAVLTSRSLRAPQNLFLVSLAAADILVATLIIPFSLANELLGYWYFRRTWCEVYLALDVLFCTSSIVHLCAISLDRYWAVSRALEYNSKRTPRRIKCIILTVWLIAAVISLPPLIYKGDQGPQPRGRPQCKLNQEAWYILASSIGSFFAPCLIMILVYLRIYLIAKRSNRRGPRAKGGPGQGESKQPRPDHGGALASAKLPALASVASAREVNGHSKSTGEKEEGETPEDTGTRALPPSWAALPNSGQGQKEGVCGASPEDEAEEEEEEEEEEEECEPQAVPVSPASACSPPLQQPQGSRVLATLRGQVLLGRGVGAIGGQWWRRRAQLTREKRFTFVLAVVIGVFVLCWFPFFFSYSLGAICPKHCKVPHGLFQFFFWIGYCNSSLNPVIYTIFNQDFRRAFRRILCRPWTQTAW
Experimental: To evaluate in radioligand binding assays the activity of compounds of the invention, human recombinant adrenergic α2B receptor expressed in Chinese hamster ovary (CHO-K1) cells (Uhlen S et al. Eur J Pharmacol. 343(1):93, 1998) in a modified Tris-HCl buffer (50 mM Tris-HCl, pH 7.4, 12.5 mM MgCl2, 1 mM EDTA, 0.2% BSA) was used. Compounds of the invention were incubated with 2.5 nM [^3H]Rauwolscine for 60 min. at 25° C. Non-specific binding was estimated in the presence of 10 μM Prozosin. Receptor proteins were filtered and washed, the filters were then counted to determine [^3H]Rauwolscine specifically bound. Compounds were screened at 1 μM or lower, using 1% DMSO as vehicle. Biochemical assay results are presented as the percent inhibition of specific binding in Table 9.

[2] = biological target: T2, human recombinant histamine H2 receptor (Homo sapiens, UniProt P25021); test: Histamine H2 radioligand binding ([125I]Aminopotentidine); settings: read-out: Histamine Binding (1 μM) H2, percent inhibition of specific binding, 1 μM
T2 construct: expressed in transfected cells; host or cells: Chinese hamster ovary (CHO) K1 cells
T2 sequence (P25021 whole entry): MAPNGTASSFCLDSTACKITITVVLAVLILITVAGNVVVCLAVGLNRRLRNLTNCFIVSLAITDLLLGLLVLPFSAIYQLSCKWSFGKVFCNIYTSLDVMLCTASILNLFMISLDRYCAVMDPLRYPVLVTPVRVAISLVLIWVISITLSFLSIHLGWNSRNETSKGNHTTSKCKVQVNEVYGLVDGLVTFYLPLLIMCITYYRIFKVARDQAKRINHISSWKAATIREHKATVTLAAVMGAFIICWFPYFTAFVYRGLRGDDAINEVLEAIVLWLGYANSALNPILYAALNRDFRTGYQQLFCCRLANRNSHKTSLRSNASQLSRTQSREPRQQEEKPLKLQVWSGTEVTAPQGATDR
How it was run: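 CHO-K1 cells expressing human recombinant H2 receptor, 50 mM phosphate buffer pH 7.4; compounds incubated with 0.1 nM [125I]aminopotentidine for 120 min at 25 °C. Nonspecific binding defined with 3 μM tiotidine; specifically bound radioligand counted after filtration and washing.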

[3] = biological target: T3, human recombinant adrenergic α2A receptor (Homo sapiens, UniProt P08913); test: Adrenergic α2A radioligand binding ([3H]MK-912); settings: percent inhibition of specific binding; compound at 1 μM; read-out: Inhibition of ligand binding, Adrenergic α2A
T3 construct: expressed in transfected cells; host or cells: insect Sf9 cells
T3 sequence (P08913 1-465): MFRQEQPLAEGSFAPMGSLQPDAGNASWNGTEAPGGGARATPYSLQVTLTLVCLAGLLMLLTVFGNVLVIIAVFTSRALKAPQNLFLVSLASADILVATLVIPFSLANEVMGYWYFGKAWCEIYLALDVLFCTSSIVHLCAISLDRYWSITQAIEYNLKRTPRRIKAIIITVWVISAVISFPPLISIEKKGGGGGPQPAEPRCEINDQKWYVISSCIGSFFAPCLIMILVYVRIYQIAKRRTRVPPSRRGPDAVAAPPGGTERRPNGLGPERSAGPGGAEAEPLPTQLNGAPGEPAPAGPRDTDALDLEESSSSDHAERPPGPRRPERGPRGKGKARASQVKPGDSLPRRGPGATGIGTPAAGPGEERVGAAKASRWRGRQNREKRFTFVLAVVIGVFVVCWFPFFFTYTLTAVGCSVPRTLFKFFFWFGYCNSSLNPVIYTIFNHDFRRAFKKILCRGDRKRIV
Experimental: To evaluate in radioligand binding assays the activity of compounds of the invention, human recombinant adrenergic α2A receptor expressed in insect Sf9 cells (Uhlen S et al. J Pharmacol Exp Ther. 271:1558, 1994) in a modified Tris-HCl buffer (50 mM Tris-HCl, pH 7.4, 12.5 mM MgCl2, 2 mM EDTA) was used. Compounds of invention were incubated with 1 nM [^3H]MK-912 for 60 min. at 25° C. MK912 is (2S-trans)-1,3,4,5′,6,6′,7,12b-octahydro-1′,3′-dimethyl-spiro[2H-benzofuro[2,3-a]quinolizine-2,4′(1′H)-pyrimidin]-2′(3′H)-one hydrochloride Non-specific binding was estimated in the presence of 10 μM WB-4101 (2-(2,6-Dimethoxyphenoxyethyl)aminomethyl-1,4-benzodioxane hydrochloride). Receptor proteins were filtered and washed, the filters were then counted to determine [^3H]MK-912 specifically bound. Compounds were screened at 1 μM or lower, using 1% DMSO as vehicle. Biochemical assay results are presented as the percent inhibition of specific binding in Table 9.

[4] = biological target: T4, human recombinant serotonin (5-Hydroxytryptamine) 5-HT6 receptor (Homo sapiens, UniProt P50406); test: Serotonin 5-HT6 radioligand binding ([3H]LSD); settings: for inhibition at 0.1 µM: compound at 0.1 μM; for inhibition at 0.1 µM / inhibition at 1 µM: read-out: Inhibition of ligand binding, Serotonin 5-HT6 (percent inhibition of specific binding)
T4 construct: expressed in transfected cells; host or cells: human HeLa cells
T4 sequence (P50406 whole entry): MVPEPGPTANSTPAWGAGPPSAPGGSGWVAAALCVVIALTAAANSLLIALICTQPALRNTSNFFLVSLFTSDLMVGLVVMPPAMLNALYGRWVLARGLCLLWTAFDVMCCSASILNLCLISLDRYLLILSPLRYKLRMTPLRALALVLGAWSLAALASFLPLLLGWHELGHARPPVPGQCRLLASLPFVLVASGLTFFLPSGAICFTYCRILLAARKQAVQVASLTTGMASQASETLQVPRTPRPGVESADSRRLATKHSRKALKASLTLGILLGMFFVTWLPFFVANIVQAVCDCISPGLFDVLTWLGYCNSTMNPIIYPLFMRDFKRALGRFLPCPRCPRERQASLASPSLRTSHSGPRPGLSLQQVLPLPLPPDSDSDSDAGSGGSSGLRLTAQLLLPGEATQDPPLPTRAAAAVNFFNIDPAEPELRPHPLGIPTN
Experimental: Compounds of the invention were incubated with 1.5 nM [3H]Lysergic acid diethylamide (LSD) for 120 min. at 37° C. […] Receptor proteins were filtered and washed, the filters were then counted to determine [3H]LSD specifically bound. Compounds were screened at 1 μM or lower, using 1% DMSO as vehicle. Biochemical assay results are presented as the percent inhibition of specific binding in Table 10.

SMILES | inhibition at 1 µM [1] [%] | inhibition at 1 µM [2] [%] | inhibition at 1 µM [3] [%] | inhibition at 0.1 µM [4] [%] | Inhibition of ligand binding, Serotonin 5-HT6 (percent inhibition of specific binding) ([4]; compound at 1 μM, 1 µM) [%] | inhibition at 1 µM ([4]; compound at 1 μM) [%]
C/C(=C\n1c2c(c3cc(C)ccc31)CN(C)CC2)c1ccncc1 [Compound 88, (E)-2,3,4,5-tetrahydro-2,8-dimethyl-5-(2-(pyridin-4-yl)prop-1-enyl)-1H-pyrido[4,3-b]indole] | 107 | 30 | 65 | 82 | 103 | 102
C/C(=C\n1c2c(c3cc(Cl)ccc31)CN(C)CC2)c1ccc(C)nc1 [Compound 89, (E)-8-chloro-2,3,4,5-tetrahydro-2-methyl-5-(2-(6-methylpyridin-3-yl)prop-1-enyl)-1H-pyrido[4,3-b]indole] | 108 | 91 | 97 | – | – | 67
C/C(=C\n1c2c(c3cc(Cl)ccc31)CN(C)CC2)c1ccncc1 [Compound 90, (E)-8-chloro-2,3,4,5-tetrahydro-2-methyl-5-(2-(pyridin-4-yl)prop-1-enyl)-1H-pyrido[4,3-b]indole] | 104 | 60 | 95 | 102 | – | 103
COc1ccc(/C(C)=C/n2c3c(c4cc(Cl)ccc42)CN(C)CC3)cc1 [Compound 92, (E)-8-chloro-2,3,4,5-tetrahydro-5-(2-(4-methoxyphenyl)prop-1-enyl)-2-methyl-1H-pyrido[4,3-b]indole] | 103 | 99 | 89 | – | – | 97
COc1ccc(/C(C)=C/n2c3c(c4cc(Cl)ccc42)CN(C)CC3)cc1F [Compound 93, (E)-8-chloro-5-(2-(3-fluoro-4-methoxyphenyl)prop-1-enyl)-2,3,4,5-tetrahydro-2-methyl-1H-pyrido[4,3-b]indole] | 108 | 100 | 94 | – | – | 93
C/C(=C\n1c2c(c3cc(Cl)ccc31)CN(C)CC2)c1ccc(Cl)cc1 [Compound 100, (E)-8-chloro-5-(2-(4-chlorophenyl)prop-1-enyl)-2,3,4,5-tetrahydro-2-methyl-1H-pyrido[4,3-b]indole] | 97 | 100 | 101 | 62 | – | 95
CN1CCc2c(c3cc(Cl)ccc3n2/C=C(/c2ccc(F)cc2)C2CC2)C1 [Compound 110, (E)-8-chloro-5-(2-cyclopropyl-2-(4-fluorophenyl)vinyl)-2,3,4,5-tetrahydro-2-methyl-1H-pyrido[4,3-b]indole] | 92 | 102 | 99 | 102 | – | 104
Cc1ccc(/C=C/Cn2c3c(c4cc(Cl)ccc42)CN(C)CC3)cn1 [Compound 125, 8-chloro-2,3,4,5-tetrahydro-2-methyl-5-((E)-3-(6-methylpyridin-3-yl)allyl)-1H-pyrido[4,3-b]indole] | 110 | 48 | 76 | – | – | 62
CN1CCc2c(c3cc(Cl)ccc3n2C/C=C/c2ccc(F)cc2)C1 [Compound 126, 5-(4-fluorocinnamyl)-8-chloro-2,3,4,5-tetrahydro-2-methyl-1H-pyrido[4,3-b]indole] | 116 | 85 | 87 | – | – | 95
CN1CCc2c(c3cc(Cl)ccc3n2C/C=C/c2ccncc2)C1 [Compound 127, 8-chloro-2,3,4,5-tetrahydro-2-methyl-5-((E)-3-(pyridin-4-yl)allyl)-1H-pyrido[4,3-b]indole] | 68 | 22 | 60 | – | – | 41
